Reference: ChEMBL document CHEMBL5291721, “A preclinical secondary pharmacology resource illuminates target-adverse drug reaction associations of marketed drugs” (Nat Commun, 2023)

Key:
[1] = target: T1, Oxysterols receptor LXR-alpha (Homo sapiens, UniProt Q13133); type: functional
T1 sequence (Q13133 whole entry): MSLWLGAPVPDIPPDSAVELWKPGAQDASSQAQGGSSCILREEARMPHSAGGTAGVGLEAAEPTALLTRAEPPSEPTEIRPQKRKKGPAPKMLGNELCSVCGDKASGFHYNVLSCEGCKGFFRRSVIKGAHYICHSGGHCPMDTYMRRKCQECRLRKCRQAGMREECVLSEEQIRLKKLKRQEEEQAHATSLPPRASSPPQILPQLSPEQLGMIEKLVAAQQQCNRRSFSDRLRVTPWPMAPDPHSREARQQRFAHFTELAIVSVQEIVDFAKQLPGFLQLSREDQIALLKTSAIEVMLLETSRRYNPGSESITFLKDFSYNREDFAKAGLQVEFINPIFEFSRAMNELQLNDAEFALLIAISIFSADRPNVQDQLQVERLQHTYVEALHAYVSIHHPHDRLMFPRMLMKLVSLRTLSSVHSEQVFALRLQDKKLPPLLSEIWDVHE

[2] = target: T2, Peroxisome proliferator-activated receptor alpha (Homo sapiens, UniProt Q07869); type: functional
T2 sequence (Q07869 whole entry): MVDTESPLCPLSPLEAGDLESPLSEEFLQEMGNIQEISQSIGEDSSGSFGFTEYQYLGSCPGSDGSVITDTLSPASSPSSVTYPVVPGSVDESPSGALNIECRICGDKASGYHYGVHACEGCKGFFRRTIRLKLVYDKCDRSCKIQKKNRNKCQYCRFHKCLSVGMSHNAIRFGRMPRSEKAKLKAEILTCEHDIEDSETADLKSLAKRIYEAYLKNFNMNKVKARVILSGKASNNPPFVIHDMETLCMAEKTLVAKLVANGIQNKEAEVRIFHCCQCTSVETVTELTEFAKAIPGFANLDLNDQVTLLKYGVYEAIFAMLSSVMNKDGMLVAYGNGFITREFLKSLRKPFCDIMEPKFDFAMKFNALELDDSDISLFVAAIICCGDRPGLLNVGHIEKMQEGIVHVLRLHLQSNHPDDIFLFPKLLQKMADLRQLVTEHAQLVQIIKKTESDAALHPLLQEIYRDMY

[3] = target: T3, Muscarinic acetylcholine receptor M4 (Homo sapiens, UniProt P08173)
T3 sequence (P08173 whole entry): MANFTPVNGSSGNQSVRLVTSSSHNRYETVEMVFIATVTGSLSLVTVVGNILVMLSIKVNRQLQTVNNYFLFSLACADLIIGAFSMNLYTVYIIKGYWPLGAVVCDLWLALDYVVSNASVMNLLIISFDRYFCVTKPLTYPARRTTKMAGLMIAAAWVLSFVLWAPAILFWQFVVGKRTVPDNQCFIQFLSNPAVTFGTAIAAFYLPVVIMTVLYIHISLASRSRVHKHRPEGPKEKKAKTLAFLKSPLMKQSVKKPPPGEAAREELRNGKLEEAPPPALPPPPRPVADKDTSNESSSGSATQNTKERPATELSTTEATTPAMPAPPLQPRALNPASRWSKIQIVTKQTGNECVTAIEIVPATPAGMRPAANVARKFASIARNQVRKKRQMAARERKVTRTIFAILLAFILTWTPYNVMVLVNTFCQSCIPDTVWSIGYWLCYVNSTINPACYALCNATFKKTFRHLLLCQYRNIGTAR

Androgen receptor = target: T4, Androgen receptor (Rattus norvegicus, UniProt P15207)
T4 sequence (P15207 whole entry): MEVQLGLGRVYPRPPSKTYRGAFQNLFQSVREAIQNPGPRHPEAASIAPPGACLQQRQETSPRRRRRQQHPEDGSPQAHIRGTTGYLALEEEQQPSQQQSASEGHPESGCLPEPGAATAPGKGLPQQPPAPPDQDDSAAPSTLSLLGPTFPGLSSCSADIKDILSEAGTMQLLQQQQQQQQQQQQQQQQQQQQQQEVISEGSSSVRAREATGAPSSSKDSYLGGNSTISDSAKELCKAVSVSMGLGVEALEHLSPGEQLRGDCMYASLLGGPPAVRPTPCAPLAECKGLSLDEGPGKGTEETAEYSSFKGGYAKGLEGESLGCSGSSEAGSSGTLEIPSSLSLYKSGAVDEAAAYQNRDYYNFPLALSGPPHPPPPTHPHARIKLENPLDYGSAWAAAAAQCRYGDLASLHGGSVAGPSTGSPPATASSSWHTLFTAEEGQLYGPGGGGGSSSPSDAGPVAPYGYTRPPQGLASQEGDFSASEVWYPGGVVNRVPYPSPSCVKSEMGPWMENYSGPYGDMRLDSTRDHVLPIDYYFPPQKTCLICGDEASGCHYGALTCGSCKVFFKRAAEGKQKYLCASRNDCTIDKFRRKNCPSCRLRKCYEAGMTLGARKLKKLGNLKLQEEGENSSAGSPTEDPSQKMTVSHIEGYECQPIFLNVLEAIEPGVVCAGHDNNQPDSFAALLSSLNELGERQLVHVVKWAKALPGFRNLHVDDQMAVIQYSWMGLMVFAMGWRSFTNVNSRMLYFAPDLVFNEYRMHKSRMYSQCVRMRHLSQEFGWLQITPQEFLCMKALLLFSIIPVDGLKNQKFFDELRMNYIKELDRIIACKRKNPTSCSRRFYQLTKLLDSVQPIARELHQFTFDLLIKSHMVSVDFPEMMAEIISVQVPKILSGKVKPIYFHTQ

Substance-K receptor = target: T5, Substance-K receptor (Homo sapiens, UniProt P21452)
T5 sequence (P21452 whole entry): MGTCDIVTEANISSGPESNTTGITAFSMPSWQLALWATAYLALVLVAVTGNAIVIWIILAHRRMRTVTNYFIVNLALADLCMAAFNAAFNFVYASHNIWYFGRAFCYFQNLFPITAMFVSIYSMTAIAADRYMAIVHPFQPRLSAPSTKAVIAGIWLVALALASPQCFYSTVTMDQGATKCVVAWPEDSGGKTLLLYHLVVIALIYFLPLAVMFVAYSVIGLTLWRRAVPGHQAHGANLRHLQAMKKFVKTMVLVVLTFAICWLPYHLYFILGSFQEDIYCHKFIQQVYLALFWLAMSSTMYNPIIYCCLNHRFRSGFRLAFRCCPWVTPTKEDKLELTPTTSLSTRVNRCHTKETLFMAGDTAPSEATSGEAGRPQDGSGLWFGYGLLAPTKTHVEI

[4] = target: 5-hydroxytryptamine receptor 2A (Homo sapiens, UniProt P28223)
Also: assay procedure not described here.

5-hydroxytryptamine receptor 2A, sequence (P28223 whole entry): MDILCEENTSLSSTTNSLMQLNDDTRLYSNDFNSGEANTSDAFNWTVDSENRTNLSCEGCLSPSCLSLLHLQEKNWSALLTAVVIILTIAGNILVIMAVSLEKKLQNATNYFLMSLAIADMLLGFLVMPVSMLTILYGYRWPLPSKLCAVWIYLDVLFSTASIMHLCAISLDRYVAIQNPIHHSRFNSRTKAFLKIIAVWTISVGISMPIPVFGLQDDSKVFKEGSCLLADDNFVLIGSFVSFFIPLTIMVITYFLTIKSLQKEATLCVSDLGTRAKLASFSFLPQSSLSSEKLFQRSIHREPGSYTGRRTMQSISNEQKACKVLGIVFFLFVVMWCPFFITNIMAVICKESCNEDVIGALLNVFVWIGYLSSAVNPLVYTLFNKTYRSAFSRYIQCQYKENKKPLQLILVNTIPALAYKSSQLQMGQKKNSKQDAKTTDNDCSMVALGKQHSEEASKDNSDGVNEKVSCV

## CC(/C=C1\SC(=S)N(CC(=O)O)C1=O)=C\c1ccccc1
[1]
  AC50: > 30 µM
[2]
  AC50: > 30 µM

## CC1(C)S[C@@H]2[C@H](NC(=O)[C@H](N)c3ccc(O)cc3)C(=O)N2[C@H]1C(=O)O [AMOXICILLIN]
[3]
  AC50: > 10 µM
Androgen receptor
  AC50: > 30 µM
[1]
  AC50: > 30 µM
Substance-K receptor
  AC50: > 10 µM
[2]
  AC50: > 30 µM

## O=C1CN2Cc3c(ccc(Cl)c3Cl)N=C2N1 [ANAGRELIDE]
[4]
  AC50: > 10 µM
Androgen receptor
  AC50: > 30 µM

## CCc1oc2ccccc2c1C(=O)c1cc(Br)c(O)c(Br)c1 [BENZBROMARONE]
Androgen receptor
  AC50: > 10 µM

## [H]/N=C(\N/C(=N/[H])NCCCCCCNC(=N)NC(=N)Nc1ccc(Cl)cc1)Nc1ccc(Cl)cc1 [CHLORHEXIDINE]
Androgen receptor
  AC50: > 30 µM

## COC(=O)[C@H](c1ccccc1Cl)N1CCc2sccc2C1 [CLOPIDOGREL]
[3]
  AC50: > 10 µM
Substance-K receptor
  AC50: > 10 µM

## Cc1cnc(NC(=O)C2=C(O)c3ccccc3S(=O)(=O)N2C)s1 [MELOXICAM]
[3]
  AC50: > 10 µM
Substance-K receptor
  AC50: > 10 µM

## CN(C)c1cc(CNCC(C)(C)C)c(O)c2c1C[C@H]1C[C@H]3[C@H](N(C)C)C(O)=C(C(N)=O)C(=O)[C@@]3(O)C(O)=C1C2=O [OMADACYCLINE]
[3]
  AC50: > 30 µM

## CNC[C@H](O)c1cccc(O)c1 [PHENYLEPHRINE]
[4]
  AC50: > 10 µM

## CC(C)C[C@H](CN)CC(=O)O [PREGABALIN]
[4]
  AC50: > 10 µM

## CNC(=O)c1cc(Oc2ccc(NC(=O)Nc3ccc(Cl)c(C(F)(F)F)c3)c(F)c2)ccn1 [REGORAFENIB]
[1]
  AC50: > 30 µM
[2]
  AC50: > 30 µM

## CCOc1cc(CC(=O)N[C@@H](CC(C)C)c2ccccc2N2CCCCC2)ccc1C(=O)O [REPAGLINIDE]
[1]
  AC50: > 30 µM
[2]
  AC50: > 30 µM

## CCCN(CCC)CCc1cccc2c1CC(=O)N2 [ROPINIROLE]
[4]
  AC50: > 10 µM

## CCCCNc1ccc(C(=O)OCCN(C)C)cc1 [TETRACAINE]
[3]
  AC50: > 10 µM
Substance-K receptor
  AC50: > 10 µM

## CC1(C)O[C@@H]2[C@@H](CO[C@@]3(COS(N)(=O)=O)OC(C)(C)O[C@@H]23)O1 [TOPIRAMATE]
[4]
  AC50: > 10 µM
